Assay [1] addresses T1, Acetylcholinesterase (Homo sapiens, UniProt P22303). The experiment in a line: Inhibition of human AChE using acetylthiocholine iodide as substrate by Ellman's method. On the technique in general: Ellman's reagent forms a yellow product with free thiols.
Assay [2] has as its target T2, Cholinesterase (Homo sapiens, UniProt P06276). The experiment in a line: Inhibition of human BChE using butyrylthiocholineiodide as substrate by Ellman's method.
The nature of assay [3]: Inhibition of equine serum BChE using butyrylthiocholine iodide as substrate incubated for 30 mins by Ellman's method. Details: species or system Equus caballus.
Assay [4] deals with Indoleamine 2,3-dioxygenase 1 (Homo sapiens, UniProt P14902). The experiment in a line: Inhibition of IDO1 (unknown origin).
Assay [5] addresses T1, Acetylcholinesterase. Put plainly: Inhibition of human recombinant AChE using acetylthiocholine iodide as substrate preincubated for 30 mins followed by substrate addition and measured for 60 mins by Ellman's method.
Assay [6] addresses T1, Acetylcholinesterase. The experiment in a line: Binding affinity to AChE (unknown origin) assessed as inhibition constant.
Assay [7] has as its target T2, Cholinesterase. The experiment in a line: Binding affinity to BChE (unknown origin) assessed as inhibition constant.
For assay [8], the target named is T2, Cholinesterase. Put plainly: Inhibition of BChE (unknown origin) incubated for 10 mins by Ellman's method.
The target in assay [9] is T3, Cholinesterase (Equus caballus, UniProt P81908). The experiment in a line: Inhibition of equine serum BuChE using S-butyrylthiocholine chloride as substrate by Ellman's method. It counts as cell-free.
Assay [10] addresses T1, Acetylcholinesterase. The experiment in a line: Inhibition of human AChE by Ellman's method.
Assay [11] concerns the target T3, Cholinesterase. The experiment in a line: Inhibition of equine BuChE.
In assay [12] the target is T1, Acetylcholinesterase. Put plainly: Inhibition of AChE (unknown origin) using acetylthiocholine iodide as substrate preincubated for 15 min followed by substrate addition and measured after 60 min by Ellman's method.
The target of assay [13] is T2, Cholinesterase. Put plainly: Inhibition of human BChE using butyrylthiocholineiodide as substrate measured for 30 mins by Ellman's method.
The target of assay [14] is T1, Acetylcholinesterase. Put plainly: Inhibition of AChE (unknown origin).
The target in assay [15] is T2, Cholinesterase. The experiment in a line: Inhibition of BChE (unknown origin).
Assay [16] addresses T4, Amine oxidase [flavin-containing] A (Homo sapiens, UniProt P21397).
T4 sequence (P21397 whole entry): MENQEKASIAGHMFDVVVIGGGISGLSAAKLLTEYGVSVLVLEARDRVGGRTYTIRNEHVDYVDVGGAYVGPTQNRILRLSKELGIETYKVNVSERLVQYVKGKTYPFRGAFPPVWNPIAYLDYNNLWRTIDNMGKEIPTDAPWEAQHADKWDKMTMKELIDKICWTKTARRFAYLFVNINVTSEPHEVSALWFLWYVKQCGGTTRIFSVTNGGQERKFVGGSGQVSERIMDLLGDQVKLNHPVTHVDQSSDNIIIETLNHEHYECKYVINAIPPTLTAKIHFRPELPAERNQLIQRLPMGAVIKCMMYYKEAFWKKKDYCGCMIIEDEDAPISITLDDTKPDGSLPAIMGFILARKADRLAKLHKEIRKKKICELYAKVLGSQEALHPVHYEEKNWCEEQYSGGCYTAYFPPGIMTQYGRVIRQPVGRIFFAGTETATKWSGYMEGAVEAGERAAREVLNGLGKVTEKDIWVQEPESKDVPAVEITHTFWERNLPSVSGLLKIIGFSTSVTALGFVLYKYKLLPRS
The experiment in a line: Inhibition of human recombinant MAO-A using kynuramine as substrate by incubated for 75 mins by spectrophotometric analysis.

For assay [17], the target named is T5, Amine oxidase [flavin-containing] B (Homo sapiens, UniProt P27338).
T5 sequence (P27338 whole entry): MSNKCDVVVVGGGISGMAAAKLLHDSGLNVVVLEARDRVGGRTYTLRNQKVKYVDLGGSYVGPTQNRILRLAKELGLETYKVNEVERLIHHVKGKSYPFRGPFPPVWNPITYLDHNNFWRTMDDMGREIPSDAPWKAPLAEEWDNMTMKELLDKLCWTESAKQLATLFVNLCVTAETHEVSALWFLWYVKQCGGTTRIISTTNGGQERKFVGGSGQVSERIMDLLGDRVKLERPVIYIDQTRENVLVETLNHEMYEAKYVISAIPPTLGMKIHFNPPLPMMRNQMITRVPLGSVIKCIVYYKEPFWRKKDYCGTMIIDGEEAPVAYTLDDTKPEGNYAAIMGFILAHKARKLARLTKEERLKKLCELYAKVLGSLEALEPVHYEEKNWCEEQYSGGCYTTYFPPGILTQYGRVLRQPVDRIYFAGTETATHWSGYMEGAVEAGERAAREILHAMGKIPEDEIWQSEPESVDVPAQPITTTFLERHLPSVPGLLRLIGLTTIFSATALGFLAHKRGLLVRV
Put plainly: Inhibition of human recombinant MAO-B using benzylamine as substrate by fluorescence based analysis.

Assay [18] concerns the target Acetylcholinesterase (Electrophorus electricus, UniProt O42275). Put plainly: Inhibition of electric eel AChE using acetylthiocholine iodide as substrate by Ellman's method.
The nature of assay [19]: Inhibition of equine serum BChE using butyrylthiocholine iodide as substrate by measured after 30 mins Ellman's method. The assay is classed as cell-free, Equus caballus.

In ChEMBL document CHEMBL5579820, “New insights into butyrylcholinesterase: Pharmaceutical applications, selective inhibitors and multitarget-directed ligands” (Eur J Med Chem, 2024) one finds IC50 and Ki data, which are given here for nine compounds.

As usually defined, the IC50 is the concentration at which inhibition is half-maximal. What is called Ki is the equilibrium dissociation constant of an inhibitor or competing ligand from its target.

T1 sequence (P22303 whole entry): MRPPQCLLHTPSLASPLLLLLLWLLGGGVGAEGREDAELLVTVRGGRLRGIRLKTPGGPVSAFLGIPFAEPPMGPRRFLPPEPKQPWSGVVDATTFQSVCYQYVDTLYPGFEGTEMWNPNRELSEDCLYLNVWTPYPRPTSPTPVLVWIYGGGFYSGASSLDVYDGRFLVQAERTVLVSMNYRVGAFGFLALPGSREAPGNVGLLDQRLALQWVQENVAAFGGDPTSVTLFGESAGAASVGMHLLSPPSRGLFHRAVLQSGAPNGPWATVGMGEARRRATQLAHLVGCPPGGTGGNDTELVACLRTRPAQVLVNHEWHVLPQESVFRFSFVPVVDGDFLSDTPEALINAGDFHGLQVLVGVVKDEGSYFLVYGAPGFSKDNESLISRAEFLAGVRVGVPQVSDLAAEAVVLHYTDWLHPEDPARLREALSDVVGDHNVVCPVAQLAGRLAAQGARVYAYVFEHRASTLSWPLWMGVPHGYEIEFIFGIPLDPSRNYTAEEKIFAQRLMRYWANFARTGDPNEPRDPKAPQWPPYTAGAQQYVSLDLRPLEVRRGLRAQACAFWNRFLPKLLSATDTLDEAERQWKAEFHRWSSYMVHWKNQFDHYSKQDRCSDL
T2 sequence (P06276 whole entry): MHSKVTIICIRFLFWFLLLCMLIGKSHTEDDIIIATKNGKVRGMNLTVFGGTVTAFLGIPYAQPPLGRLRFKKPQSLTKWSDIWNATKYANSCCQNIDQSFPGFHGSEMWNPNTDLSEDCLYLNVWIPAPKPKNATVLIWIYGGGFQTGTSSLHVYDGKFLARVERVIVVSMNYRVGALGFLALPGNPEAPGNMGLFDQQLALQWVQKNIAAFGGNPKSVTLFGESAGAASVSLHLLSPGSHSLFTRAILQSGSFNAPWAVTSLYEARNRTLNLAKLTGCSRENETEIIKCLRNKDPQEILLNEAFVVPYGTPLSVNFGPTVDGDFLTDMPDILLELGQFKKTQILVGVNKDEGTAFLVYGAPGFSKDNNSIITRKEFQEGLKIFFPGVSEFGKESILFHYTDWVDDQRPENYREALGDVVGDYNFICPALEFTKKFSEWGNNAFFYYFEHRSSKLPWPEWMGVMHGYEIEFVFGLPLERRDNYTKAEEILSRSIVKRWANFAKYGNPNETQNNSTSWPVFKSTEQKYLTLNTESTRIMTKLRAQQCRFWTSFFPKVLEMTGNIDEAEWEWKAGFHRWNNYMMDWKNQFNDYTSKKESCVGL
T3 sequence (P81908 whole entry): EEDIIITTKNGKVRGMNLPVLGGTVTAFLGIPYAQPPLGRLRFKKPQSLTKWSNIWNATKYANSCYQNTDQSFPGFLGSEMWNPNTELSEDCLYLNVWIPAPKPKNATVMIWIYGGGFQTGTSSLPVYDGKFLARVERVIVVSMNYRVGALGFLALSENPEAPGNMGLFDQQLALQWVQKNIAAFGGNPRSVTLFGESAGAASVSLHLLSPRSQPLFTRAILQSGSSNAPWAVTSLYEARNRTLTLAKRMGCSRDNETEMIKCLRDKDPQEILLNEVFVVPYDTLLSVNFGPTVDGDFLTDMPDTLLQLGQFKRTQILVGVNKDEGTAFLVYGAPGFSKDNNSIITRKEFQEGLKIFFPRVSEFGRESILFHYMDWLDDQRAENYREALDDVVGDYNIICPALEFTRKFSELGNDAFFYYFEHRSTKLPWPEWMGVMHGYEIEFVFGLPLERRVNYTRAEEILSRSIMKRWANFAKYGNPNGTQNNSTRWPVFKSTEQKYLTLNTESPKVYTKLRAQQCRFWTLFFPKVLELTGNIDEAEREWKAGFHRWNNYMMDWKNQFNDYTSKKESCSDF
Chain of Acetylcholinesterase (Electrophorus electricus, UniProt O42275) (O42275 whole entry): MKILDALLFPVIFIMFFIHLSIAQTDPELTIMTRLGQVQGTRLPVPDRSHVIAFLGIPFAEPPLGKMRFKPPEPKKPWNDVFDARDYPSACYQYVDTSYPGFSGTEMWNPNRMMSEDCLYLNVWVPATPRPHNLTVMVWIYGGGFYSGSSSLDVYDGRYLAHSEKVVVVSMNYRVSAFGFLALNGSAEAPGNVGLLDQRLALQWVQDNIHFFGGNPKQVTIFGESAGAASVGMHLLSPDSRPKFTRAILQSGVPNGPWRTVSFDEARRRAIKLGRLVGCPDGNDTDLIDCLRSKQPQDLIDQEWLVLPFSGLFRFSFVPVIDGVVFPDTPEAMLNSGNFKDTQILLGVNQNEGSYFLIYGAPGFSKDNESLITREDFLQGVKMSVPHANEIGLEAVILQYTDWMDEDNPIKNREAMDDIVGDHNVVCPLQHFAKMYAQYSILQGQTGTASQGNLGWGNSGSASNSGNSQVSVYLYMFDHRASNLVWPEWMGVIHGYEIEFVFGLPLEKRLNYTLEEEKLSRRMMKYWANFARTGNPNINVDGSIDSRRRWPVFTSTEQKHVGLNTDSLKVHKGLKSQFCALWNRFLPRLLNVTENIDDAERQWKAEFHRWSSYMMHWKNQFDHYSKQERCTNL
Chain of Indoleamine 2,3-dioxygenase 1 (P14902 whole entry): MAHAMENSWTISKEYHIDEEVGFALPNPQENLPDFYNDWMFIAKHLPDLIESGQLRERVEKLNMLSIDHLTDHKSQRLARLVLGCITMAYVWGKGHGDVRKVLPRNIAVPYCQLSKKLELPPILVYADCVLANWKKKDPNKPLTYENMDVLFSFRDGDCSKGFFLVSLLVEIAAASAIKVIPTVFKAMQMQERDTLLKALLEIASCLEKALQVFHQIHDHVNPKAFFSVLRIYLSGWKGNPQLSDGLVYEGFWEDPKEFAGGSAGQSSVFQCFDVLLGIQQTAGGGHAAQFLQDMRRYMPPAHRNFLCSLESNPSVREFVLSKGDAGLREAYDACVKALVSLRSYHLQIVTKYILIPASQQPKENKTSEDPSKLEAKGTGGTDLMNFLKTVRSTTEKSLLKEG

On to `Cc1cc2c(cc1C)[n+](Cc1ccccc1C)cn2C(c1ccccc1)c1ccccc1`, for which the half-inhibitory concentration (IC50) against Acetylcholinesterase [1] is 4.19 µM; on Cholinesterase [2] it was 0.15 µM.

In the case of `COc1cccc(COC(Cn2ccnc2)c2ccc(F)c(F)c2)c1` (centres undefined), the IC50 in [3] was 13.2 µM; in [4] it was 22.8 µM.

In the case of `Clc1ccc(C(Cn2ccnc2)OCc2csc3c(Cl)cccc23)c(Cl)c1` (centres undefined) [SERTACONAZOLE], on Acetylcholinesterase [5], the IC50 amounted to 0.1 µM.

`O=C(Oc1cc(OC(=O)N2CCCCC2)cc(C(O)CN2CCCCC2)c1)N1CCCCC1` (centres undefined): the Ki on Acetylcholinesterase [6] worked out at 6.93 µM; at Cholinesterase [7], 0.011 µM.

With `CN1CCc2c(c3cc(F)ccc3n2CCNC23CC4CC(C)(CC(C)(C4)C2)C3)C1`, the IC50 against Cholinesterase [8] is 39.7 µM; at Cholinesterase [9] it was 0.72 µM.

For the compound `Nc1c2c(nc3ccccc13)CCC2`, the half-maximal inhibitory concentration (IC50) against Acetylcholinesterase [10] was found to be 4.4 µM; on Cholinesterase [11], 0.27 µM.

On to `c1ccc(-c2nn(-c3ccccc3)cc2-c2nc(-c3ccccc3)c(-c3ccccc3)n2-c2ccccc2)cc1`, for which the IC50 stood at 41.2 µM on Acetylcholinesterase [12] and 0.35 µM against Cholinesterase [13].

For `Cc1ccc(/C=N/NC(=O)Cn2c(=O)sc3ccccc32)s1`, the concentration for half-maximal inhibition (IC50) against Acetylcholinesterase [14] was over 40 µM; at Cholinesterase [15], 1.38 µM.

As to `COc1cccc(COc2ccc(C(C)=O)c(OCc3cn(CCc4c[nH]c5ccccc45)nn3)c2)c1`, the IC50 is 74.7 µM in [16], 3.71 µM in assay [17], over 100 µM against Acetylcholinesterase [18] and 0.92 µM in [19].
